Laboratory results: US5994336A, “Method of inhibiting proliferation of cells by administering an aminosterol compound” (priority 1995, dated 1999)

Assays:
[1] = Hematological profile of L1210-inoculated mice
Description: C57B mice were inoculated with L1210 lymphoblastic leukemia cells at an inoculum that causes leukemia in 100% of animals.

vitelline capillaries = assay: Chick embryo vitelline capillary regression assay; format: in vivo
Procedure: Using the chick embryo vitelline capillaries assay, compounds were tested for their ability to induce capillary regression. Each compound was applied in 0.1 ml of 15% Ficol 400 and PBS onto the embryo, and vascular regression was assessed after 60 minutes.
The 3-day chick embryo consists of an embryonic disc from which numerous vessels emerge and return, forming a "FIG. 8"-shaped structure--the embryo in the center with vascular loops extending outward over both poles. […] Following a lag period of around 15 minutes, the constriction of continuity between capillary and secondary vessels, generally on the "venous" side, was observed. Continued pulsatile blood flow progressed, resulting in a "swelling" of the blind tube, followed by a pinching off of the remaining connection and formation of an enclosed vascular sac resembling a "blood island." This process progressed until only the largest vessels remained intact.

[2] = tested on: Xenopus tadpole, stage 59-60; assay: Tadpole assay; format: in vivo, Xenopus laevis; settings: 10 μg/ml, stage 59-60
Description: For example, substances that destroy all of the animal's epithelium, both adult and embryonic, could be regarded as toxic.
The volume of liquid is sufficient for the animal to swim freely and drink from the solution. […] If the volume of liquid is not sufficient to permit oral intake, the effects that are observed would result from absorption through the surface epithelium.
In another embodiment of this assay, a solution of a compound in water can be injected directly into the abdomen of the animal using standard techniques.
After an amount of time, typically about 60 minutes, the occlusion of blood flow through capillaries in the tadpole's tail are observed under an inverted microscope at a magnification of roughly 100×.
In the assay, each of the steroids was dissolved in 100 ml of distilled water at a concentration of 10 μg/ml. Stage 59-60 Xenopus tadpoles were introduced and evaluated by light microscopy and gross observation 1 hour later.

B16 melanoma = assay: Suppression of growth of B16 melanoma in C57B mice; format: in vivo, mouse; settings: subcutaneous; FIG. 6
Procedure: The growth of B16 melanoma in C57B mice is dependent upon neovascularization.
Using the growth of B16 melanoma cells in C57B mice, a recognized model for the evaluation of inhibitors of angiogenesis on the growth of cancers, the effects of subcutaneous, intraperitoneal and oral administration of squalamine were evaluated.

NHE = assay: Comparison of compound 319 with squalamine
Description: Moreover, other aminosterols have shown anti-angiogenic activity. Compounds were subjected to a various assays, including the chick embryo capillary regression assay, the tadpole assay, the assay for inhibition of endothelial cord formation, and the assay for direct inhibition of NHE, as described above, to determine their utilities. As evident from the above data, correlation among the results from the chick, tadpole and in vitro inhibition of endothelial cell cord formation assays is excellent.
Through the application of these assays, compound 319 emerged as an attractive alternative to squalamine. […] Further properties of compound 319 are discussed below.

N.N.[Cl][Pt][Cl] [Cisplatin]
hematological profile [1]: profound anemia by day 28

C[C@H](CCC(=O)O)[C@H]1CC[C@H]2[C@@H]3CC[C@H]4C[C@@H](NCCCNCCCCN)CC[C@]4(C)[C@H]3CC[C@]12C [Compound 319]
activity on vitelline capillaries (vitelline capillaries): especially active | pharmacological response in tadpole (words) [2]: common vascular occlusive effect | control of B16 melanoma (B16 melanoma): control of B16 in C57B mice to an extent almost comparable to squalamine | potency as an NHE inhibitor compared with squalamine (NHE): superior to squalamine
